Columns and labels:
IlvA [1] = target: T1, IlvA (Salmonella enterica, UniProt P20506); assay: pyruvate-PLP adduct released by base from the purified protein, HPLC; format: cell-based; details: covalent; 2AA formed in vivo, ridA host, 5 mM L-serine; attacks active-site PLP
T1 construct: pET20b derivative pDM1578, N-terminal His6 tag; expressed in S. enterica DM13509 (wild type) and DM17050 (ridA)
T1 sequence (P20506 1-514): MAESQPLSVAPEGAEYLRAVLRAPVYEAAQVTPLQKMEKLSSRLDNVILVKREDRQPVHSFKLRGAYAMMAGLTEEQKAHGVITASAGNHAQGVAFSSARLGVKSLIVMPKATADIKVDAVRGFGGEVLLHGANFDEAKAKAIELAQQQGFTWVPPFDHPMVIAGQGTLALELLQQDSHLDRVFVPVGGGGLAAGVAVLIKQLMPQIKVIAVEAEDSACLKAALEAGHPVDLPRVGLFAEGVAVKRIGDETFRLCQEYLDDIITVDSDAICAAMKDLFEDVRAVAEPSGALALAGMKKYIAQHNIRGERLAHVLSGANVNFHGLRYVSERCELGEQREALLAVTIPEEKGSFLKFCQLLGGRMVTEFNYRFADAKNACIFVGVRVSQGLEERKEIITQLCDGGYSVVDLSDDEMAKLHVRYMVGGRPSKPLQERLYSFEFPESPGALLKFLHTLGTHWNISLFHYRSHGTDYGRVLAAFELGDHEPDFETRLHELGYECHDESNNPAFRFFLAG

Alr [2] = target: T2, Alr (Salmonella enterica, UniProt P0A1A3); assay: as above; format: cell-based; details: covalent; 2AA formed in vivo, ridA host, 5 mM L-serine; attacks active-site PLP
T2 construct: pET20b derivative pDM1602, N-terminal His6 tag; expressed in and purified from S. enterica DM13509 (wild type) and DM17050 (ridA)
T2 sequence (P0A1A3 whole entry): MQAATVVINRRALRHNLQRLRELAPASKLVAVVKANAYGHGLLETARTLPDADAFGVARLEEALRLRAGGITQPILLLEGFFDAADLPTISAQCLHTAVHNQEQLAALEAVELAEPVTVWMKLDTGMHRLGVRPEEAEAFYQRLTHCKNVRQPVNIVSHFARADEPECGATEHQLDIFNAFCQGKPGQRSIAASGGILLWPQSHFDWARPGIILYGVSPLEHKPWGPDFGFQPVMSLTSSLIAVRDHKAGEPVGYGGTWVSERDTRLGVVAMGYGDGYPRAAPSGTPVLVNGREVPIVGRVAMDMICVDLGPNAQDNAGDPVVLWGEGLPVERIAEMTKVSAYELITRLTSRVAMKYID
Description: pyruvate-PLP adduct released by base from the purified protein, HPLC on Alr

IlvE [3] = target: T3, IlvE (Salmonella enterica, UniProt P0A1A5); assay: as above; format: cell-based; details: covalent; 2AA formed in vivo, ridA host, 5 mM L-serine; attacks active-site PLP
T3 construct: pET28b plasmid, purified on HisTrap (His-tagged); expressed in S. enterica DM13509 (wild type) and DM17050 (ridA)
T3 sequence (P0A1A5 2-309): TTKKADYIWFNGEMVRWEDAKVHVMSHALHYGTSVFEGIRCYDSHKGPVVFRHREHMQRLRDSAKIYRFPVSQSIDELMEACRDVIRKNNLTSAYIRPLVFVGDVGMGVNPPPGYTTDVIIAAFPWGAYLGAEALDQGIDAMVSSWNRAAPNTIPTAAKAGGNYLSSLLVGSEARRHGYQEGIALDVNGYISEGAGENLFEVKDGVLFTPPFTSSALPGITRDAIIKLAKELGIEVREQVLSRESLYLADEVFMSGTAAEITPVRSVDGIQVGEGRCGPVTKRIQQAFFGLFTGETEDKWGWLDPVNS
Description: pyruvate-PLP adduct released by base from the purified protein, HPLC on IlvE

Alr [4] = target: T2, Alr; assay: incubation with purified protein, base release of cofactors, HPLC; format: binding; details: covalent; suicide inhibitor, forms pyruvate-PLP in the active site; protein from ridA+ host
IlvE [5] = target: T3, IlvE; assay: base release of bound cofactor, HPLC at […] nm; format: binding; details: protein from wild-type (ridA+) host; 30 mM KOH release; storage buffer with 10 μM PLP
IlvA [6] = target: T1, IlvA; assay: base release of bound cofactor, HPLC at […] nm; format: binding; details: protein from wild-type (ridA+) host; 30 mM KOH release; storage buffer with 10 μM PLP
Alr [7] = target: T2, Alr; assay: base release of bound cofactor, HPLC at […] nm; format: binding; details: protein from wild-type (ridA+) host; 30 mM KOH release; storage buffer with 10 μM PLP
IlvE [8] = target: T3, IlvE; assay: base release of bound cofactor, HPLC at […] nm; format: binding; details: protein from wild-type (ridA+) host; 30 mM KOH release; storage buffer with 10 μM PLP; remark: listed apart in the source

In the case of `C=C(N)C(=O)O` [2AA], the Pyruvate-PLP (IlvA [1]) is reported as 0.03 ± <0.01, the Pyruvate-PLP (Alr [2]) is reported as 0.11 ± <0.01 and the Pyruvate-PLP (IlvE [3]) is reported as 0.72 ± <0.01.
`NC(CCl)C(=O)O` (centres unmarked) [3CA] was tested, and the “incubation with purified protein, base release of cofactors, HPLC” value (Alr [4]) was “Alr but not IlvA is sensitive to 3-chloroalanine (3CA)”.
`Cc1ncc(COP(=O)(O)O)c(C=O)c1O` [PLP] was tested, and the PLP (IlvE [5]) was 0.30 ± <0.01, the PLP (IlvA [6]) was 1.25 ± 0.04 nmol/nmol protein and the PLP (Alr [7]) was 0.87 ± <0.01.
For `Cc1ncc(COP(=O)(O)O)c(CN)c1O` [PMP], the PMP (IlvE [8]) was 0.33 ± <0.01.

Reference: PMC9127364, “2-Aminoacrylate stress damages diverse PLP-dependent enzymes in vivo” (The Journal of Biological Chemistry, 2022)
